For 28 molecules, IC50 results are on record in ChEMBL document CHEMBL1146847, “Design and synthesis of potent, non-peptidic inhibitors of HPTPbeta” (Bioorg Med Chem Lett, 2006).

For assay [1], the target named is Receptor-type tyrosine-protein phosphatase beta (Homo sapiens, UniProt P23467).
The target in assay [2] is T1, Tyrosine-protein phosphatase non-receptor type 1 (Homo sapiens, UniProt P18031).
T1 sequence (P18031 whole entry): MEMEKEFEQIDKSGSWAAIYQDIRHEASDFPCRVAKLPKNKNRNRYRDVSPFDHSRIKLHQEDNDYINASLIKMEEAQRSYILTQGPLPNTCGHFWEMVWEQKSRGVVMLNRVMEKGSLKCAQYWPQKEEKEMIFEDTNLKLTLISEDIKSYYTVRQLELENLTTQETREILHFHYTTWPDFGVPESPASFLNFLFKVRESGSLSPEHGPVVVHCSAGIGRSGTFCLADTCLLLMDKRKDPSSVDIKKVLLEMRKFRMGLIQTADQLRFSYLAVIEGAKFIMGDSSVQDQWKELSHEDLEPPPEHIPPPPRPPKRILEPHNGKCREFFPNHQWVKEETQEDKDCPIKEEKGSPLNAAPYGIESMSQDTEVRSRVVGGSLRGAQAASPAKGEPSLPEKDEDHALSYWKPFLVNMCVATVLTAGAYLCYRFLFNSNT
The experiment in a line: Inhibition of PTP1B.

The target in assay [3] is T2, Low molecular weight phosphotyrosine protein phosphatase (Homo sapiens, UniProt P24666).
T2 sequence (P24666 whole entry): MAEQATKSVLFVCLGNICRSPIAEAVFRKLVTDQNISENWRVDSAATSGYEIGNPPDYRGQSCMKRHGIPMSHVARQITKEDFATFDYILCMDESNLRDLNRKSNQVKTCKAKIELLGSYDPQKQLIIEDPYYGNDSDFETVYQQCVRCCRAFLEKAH
The experiment in a line: Inhibition of HCPTPA.

The target of assay [4] is Receptor-type tyrosine-protein phosphatase epsilon (Homo sapiens, UniProt P23469). The experiment in a line: Inhibition of HPTP epsilon.
Assay [5] concerns the target T3, Receptor-type tyrosine-protein phosphatase F (Homo sapiens, UniProt P10586). The experiment in a line: Inhibition of LAR1.
Assay [6] deals with T3, Receptor-type tyrosine-protein phosphatase F. As to the kind of experiment: Inhibition of LAR2.
In assay [7] the target is Receptor-type tyrosine-protein phosphatase gamma (Homo sapiens, UniProt P23470). As to the kind of experiment: Inhibition of PTP gamma.
Assay [8] concerns the target T4, Tyrosine-protein phosphatase non-receptor type 2 (Homo sapiens, UniProt P17706).
T4 sequence (P17706 whole entry): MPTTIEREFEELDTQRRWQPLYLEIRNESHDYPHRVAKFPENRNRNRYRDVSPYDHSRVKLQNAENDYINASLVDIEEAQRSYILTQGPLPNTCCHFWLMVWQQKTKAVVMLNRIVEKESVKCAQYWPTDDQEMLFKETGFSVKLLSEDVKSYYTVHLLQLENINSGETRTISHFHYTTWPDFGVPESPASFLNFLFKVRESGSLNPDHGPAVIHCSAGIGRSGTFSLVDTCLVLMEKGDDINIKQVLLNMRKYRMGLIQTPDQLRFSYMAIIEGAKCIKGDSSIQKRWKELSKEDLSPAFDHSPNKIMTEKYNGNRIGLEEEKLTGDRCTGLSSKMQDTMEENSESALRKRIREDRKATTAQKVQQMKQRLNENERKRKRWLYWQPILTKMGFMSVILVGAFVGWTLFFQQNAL
As to the kind of experiment: Inhibition of TCPTP38.

Assay [9] deals with Receptor-type tyrosine-protein phosphatase mu (Homo sapiens, UniProt P28827). As to the kind of experiment: Inhibition of HPTP mu.
Assay [10] concerns the target T5, Receptor-type tyrosine-protein phosphatase C (Homo sapiens, UniProt P08575).
T5 sequence (P08575 whole entry): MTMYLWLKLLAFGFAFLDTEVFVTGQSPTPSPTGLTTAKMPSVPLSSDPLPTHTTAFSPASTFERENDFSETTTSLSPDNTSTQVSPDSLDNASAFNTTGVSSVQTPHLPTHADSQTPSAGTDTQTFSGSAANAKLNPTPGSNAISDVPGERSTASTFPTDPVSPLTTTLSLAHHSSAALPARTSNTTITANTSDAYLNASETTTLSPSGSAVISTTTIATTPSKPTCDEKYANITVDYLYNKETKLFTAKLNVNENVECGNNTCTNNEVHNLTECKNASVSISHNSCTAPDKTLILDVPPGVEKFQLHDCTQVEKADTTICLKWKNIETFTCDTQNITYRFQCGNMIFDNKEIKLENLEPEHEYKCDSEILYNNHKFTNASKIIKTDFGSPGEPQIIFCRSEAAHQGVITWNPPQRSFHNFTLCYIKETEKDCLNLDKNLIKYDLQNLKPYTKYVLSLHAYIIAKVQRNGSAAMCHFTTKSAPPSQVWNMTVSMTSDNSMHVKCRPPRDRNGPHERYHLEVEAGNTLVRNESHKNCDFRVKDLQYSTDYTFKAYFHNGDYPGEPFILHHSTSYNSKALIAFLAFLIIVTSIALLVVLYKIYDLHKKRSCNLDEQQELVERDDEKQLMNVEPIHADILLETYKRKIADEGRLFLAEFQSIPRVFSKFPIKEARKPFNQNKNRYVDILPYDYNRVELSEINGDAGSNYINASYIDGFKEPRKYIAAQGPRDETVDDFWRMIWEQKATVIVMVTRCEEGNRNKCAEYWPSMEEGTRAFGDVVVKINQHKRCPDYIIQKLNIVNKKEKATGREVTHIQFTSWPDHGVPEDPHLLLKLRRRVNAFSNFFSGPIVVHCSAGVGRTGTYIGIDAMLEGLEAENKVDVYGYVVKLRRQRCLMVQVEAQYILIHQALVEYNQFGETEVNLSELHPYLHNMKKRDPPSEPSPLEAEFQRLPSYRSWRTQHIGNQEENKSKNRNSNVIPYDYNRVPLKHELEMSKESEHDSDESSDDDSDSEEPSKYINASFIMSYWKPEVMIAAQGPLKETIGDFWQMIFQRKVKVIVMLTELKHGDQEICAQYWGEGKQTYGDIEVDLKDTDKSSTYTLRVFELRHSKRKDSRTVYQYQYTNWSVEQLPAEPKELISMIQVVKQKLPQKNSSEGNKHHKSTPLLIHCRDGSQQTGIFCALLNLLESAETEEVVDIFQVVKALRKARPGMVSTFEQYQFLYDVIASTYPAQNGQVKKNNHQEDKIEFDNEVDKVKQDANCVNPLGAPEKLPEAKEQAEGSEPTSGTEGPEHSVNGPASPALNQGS
As to the kind of experiment: Inhibition of CD45.

For assay [11], the target named is T4, Tyrosine-protein phosphatase non-receptor type 2. As to the kind of experiment: Inhibition of TCPTP.
Assay [12] concerns the target Receptor-type tyrosine-protein phosphatase alpha (Homo sapiens, UniProt P18433). As to the kind of experiment: Inhibition HPTPA.

Chain of Receptor-type tyrosine-protein phosphatase gamma (P23470 whole entry): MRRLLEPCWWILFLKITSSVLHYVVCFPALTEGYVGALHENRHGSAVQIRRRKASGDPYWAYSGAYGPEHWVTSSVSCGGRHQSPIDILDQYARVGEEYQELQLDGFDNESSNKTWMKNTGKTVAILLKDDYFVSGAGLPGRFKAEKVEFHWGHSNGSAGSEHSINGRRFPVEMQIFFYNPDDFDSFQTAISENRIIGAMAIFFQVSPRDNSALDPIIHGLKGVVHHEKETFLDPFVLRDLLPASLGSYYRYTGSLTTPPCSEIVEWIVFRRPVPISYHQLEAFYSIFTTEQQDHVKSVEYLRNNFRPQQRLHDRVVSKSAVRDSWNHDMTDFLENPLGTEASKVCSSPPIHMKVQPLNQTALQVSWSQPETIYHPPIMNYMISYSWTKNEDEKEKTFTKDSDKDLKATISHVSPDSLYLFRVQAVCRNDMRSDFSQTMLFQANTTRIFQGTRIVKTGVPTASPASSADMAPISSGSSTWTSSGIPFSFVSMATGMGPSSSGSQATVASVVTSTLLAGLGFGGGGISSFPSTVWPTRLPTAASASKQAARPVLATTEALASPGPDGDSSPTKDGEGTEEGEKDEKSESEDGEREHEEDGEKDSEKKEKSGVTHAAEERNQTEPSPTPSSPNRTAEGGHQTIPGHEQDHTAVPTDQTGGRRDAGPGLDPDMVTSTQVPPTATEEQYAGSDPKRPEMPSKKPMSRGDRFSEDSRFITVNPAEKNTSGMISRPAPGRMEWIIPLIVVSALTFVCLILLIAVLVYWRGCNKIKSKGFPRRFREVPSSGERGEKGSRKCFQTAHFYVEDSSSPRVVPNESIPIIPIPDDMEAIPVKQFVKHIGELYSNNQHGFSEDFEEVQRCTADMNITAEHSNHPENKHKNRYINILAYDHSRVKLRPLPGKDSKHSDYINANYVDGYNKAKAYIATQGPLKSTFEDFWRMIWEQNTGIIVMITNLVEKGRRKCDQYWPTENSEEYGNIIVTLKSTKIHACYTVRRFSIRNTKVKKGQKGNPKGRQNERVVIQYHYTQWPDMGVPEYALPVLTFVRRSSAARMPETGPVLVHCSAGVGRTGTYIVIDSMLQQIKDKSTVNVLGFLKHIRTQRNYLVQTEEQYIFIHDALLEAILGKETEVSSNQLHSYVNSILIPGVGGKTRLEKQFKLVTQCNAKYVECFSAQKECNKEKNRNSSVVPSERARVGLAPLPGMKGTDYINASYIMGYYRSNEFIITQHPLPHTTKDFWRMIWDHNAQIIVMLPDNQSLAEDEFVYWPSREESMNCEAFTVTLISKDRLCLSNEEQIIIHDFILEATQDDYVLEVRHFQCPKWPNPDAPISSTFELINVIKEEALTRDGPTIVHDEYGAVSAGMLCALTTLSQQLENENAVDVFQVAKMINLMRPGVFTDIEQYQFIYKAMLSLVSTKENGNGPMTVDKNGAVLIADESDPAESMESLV
Chain of Receptor-type tyrosine-protein phosphatase mu (P28827 whole entry): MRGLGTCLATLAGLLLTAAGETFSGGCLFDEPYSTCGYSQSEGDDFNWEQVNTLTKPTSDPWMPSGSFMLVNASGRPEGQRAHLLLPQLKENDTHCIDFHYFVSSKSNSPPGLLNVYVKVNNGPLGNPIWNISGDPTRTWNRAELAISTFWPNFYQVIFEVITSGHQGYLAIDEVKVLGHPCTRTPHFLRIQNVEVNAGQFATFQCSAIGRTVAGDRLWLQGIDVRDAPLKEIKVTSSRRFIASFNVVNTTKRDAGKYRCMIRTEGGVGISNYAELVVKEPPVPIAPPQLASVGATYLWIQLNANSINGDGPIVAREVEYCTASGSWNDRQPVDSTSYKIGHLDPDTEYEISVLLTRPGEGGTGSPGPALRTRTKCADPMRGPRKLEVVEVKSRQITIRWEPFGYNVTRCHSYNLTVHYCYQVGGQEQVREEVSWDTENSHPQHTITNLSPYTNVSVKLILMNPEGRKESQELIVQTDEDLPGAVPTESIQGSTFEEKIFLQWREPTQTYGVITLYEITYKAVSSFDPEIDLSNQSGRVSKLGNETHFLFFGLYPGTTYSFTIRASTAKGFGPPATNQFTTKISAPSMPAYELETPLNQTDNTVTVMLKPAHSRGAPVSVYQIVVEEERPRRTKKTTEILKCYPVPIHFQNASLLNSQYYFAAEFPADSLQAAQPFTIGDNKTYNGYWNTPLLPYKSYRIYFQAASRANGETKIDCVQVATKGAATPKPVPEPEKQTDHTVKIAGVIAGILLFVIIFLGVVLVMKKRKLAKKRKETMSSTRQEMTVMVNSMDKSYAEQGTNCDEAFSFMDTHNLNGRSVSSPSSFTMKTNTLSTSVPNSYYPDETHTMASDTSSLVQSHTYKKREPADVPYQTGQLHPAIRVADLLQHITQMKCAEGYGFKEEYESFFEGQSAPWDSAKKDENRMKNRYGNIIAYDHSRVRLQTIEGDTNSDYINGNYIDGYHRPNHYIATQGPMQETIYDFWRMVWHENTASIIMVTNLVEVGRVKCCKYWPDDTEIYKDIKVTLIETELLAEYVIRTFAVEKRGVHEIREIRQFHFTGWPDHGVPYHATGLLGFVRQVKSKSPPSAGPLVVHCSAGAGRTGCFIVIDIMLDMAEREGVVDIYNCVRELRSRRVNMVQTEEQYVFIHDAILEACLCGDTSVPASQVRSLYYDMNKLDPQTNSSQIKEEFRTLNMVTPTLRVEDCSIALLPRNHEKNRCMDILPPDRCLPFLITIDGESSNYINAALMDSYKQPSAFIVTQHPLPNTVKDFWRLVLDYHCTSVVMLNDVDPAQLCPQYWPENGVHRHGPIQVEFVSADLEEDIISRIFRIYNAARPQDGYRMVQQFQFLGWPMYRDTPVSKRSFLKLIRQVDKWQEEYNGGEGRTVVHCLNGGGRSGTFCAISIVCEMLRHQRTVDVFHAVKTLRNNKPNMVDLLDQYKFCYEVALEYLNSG
T3 sequence (P10586 whole entry): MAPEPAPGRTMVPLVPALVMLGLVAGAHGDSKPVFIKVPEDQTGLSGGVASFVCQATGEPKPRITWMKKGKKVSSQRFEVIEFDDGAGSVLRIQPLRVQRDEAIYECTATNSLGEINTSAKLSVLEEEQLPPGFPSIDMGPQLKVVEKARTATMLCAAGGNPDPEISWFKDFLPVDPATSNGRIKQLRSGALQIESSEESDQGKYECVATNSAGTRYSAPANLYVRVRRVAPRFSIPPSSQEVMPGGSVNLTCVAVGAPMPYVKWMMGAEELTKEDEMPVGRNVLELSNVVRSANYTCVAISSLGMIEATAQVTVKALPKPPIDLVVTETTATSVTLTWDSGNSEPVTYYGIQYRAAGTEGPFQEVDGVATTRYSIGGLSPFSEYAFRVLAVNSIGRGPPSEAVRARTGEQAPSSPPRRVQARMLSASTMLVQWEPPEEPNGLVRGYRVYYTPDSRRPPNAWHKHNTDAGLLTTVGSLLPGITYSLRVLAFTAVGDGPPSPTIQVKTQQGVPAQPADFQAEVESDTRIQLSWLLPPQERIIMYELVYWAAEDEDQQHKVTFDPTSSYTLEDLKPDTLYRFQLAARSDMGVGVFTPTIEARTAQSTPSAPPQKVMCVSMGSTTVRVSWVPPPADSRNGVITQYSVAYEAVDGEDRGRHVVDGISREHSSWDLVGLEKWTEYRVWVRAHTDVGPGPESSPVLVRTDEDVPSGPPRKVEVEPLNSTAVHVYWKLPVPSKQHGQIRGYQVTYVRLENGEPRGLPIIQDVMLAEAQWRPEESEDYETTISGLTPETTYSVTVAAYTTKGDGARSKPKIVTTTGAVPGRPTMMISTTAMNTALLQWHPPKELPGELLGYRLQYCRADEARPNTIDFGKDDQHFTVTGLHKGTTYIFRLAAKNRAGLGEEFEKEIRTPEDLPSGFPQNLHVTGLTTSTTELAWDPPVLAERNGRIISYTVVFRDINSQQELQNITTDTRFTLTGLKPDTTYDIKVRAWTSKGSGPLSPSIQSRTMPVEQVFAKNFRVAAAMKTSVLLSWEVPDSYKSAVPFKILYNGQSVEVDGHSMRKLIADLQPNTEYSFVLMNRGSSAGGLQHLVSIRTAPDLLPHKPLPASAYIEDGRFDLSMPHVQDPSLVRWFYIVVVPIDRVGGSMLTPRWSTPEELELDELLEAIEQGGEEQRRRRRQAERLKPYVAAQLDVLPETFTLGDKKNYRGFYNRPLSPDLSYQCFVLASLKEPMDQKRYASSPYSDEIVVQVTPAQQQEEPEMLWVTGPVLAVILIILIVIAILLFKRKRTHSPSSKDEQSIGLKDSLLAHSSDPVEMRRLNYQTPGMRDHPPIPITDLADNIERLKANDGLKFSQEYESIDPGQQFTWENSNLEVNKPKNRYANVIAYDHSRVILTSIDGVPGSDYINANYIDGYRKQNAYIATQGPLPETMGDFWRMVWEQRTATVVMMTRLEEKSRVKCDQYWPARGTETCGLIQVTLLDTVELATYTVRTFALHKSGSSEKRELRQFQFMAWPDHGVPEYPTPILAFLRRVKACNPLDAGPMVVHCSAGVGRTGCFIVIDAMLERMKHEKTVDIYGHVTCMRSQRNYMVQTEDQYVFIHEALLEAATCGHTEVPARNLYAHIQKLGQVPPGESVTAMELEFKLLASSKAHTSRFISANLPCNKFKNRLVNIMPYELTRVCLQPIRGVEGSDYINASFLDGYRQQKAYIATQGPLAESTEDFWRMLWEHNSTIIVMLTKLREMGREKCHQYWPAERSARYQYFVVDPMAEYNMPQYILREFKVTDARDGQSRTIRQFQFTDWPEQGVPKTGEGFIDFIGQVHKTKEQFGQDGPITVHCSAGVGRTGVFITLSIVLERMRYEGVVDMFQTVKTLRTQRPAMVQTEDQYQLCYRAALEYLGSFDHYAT

In assay [1], `COC(=O)C(CCCS(=O)(=O)c1nnnn1-c1ccccc1)(Cc1ccc(NS(=O)(=O)O)cc1)C(=O)OC` displayed an IC50 of 0.08 µM.
Turning to `CCOC(=O)C(Cc1ccc(NS(=O)(=O)O)cc1)(NC(=O)OCc1ccccc1)C(=O)OC` (configuration not stated), the IC50 in assay [2] is 12.8 µM; in [3], 82.2 µM; in [4], greater than 500 µM; in assay [5], 227 µM; in assay [6] it was 472 µM; in [7] it was 196 µM. The half-inhibitory concentration (IC50) is 78 µM in assay [8], greater than 500 µM in [9], 280 µM in assay [10] and 0.4 µM in assay [1].
Turning to `COC(=O)C(CCCS(C)(=O)=O)(Cc1ccc(NS(=O)(=O)O)cc1)C(=O)OC`, the midpoint of inhibition in assay [1], the IC50, lay at 0.42 µM.
As to `COC(=O)C(Cc1ccc(NS(=O)(=O)O)cc1)C(=O)OC`, in assay [1], the IC50 is 1 µM.
In assay [1], `COC(=O)C(COCc1ccccc1)(Cc1ccc(NS(=O)(=O)O)cc1)C(=O)OC` had a half-inhibitory concentration (IC50) of 0.27 µM. This IC50 lies about 3.7-fold lower than the previous one.
For `COC(=O)C(Cc1ccncc1)(Cc1ccc(NS(=O)(=O)O)cc1)C(=O)OC`, the IC50 in assay [1] came to 0.57 µM.
The same measure, in the same setting: in the case of `COC(=O)C(Cc1ccc(NS(=O)(=O)O)cc1)(Cc1ccc(S(N)(=O)=O)cc1)C(=O)OC` it was 0.43 µM; in that of `COC(=O)C(CCCS(=O)(=O)c1ccccc1)(Cc1ccc(NS(=O)(=O)O)cc1)C(=O)OC`, 0.15 µM; in that of `CCOC(=O)C(CCNC(=O)OC(C)(C)C)(Cc1ccc(NS(=O)(=O)O)cc1)C(=O)OC` (configuration not stated), 0.09 µM.
Take `COC(=O)C(CCCc1ccccc1)(Cc1ccc(NS(=O)(=O)O)cc1)C(=O)OC`: the IC50 in assay [2] was 2.3 µM; in assay [3], 7.7 µM; in [4] it was greater than 500 µM; in assay [5], 409 µM; in [6], greater than 500 µM; in assay [7], 93 µM. In addition, the concentration for half-maximal inhibition (IC50) in [8] was 15.3 µM; in [9], greater than 500 µM; in assay [10], 29 µM; in assay [1], 0.15 µM.
In assay [1], `Cc1noc(C(Cc2ccc(NS(=O)(=O)O)cc2)(Cc2cccc(C#N)c2)c2nc(C)no2)n1` registered a 50% inhibitory concentration (IC50) of 0.21 µM.
Turning to `COC(=O)C(Cc1ccc(NS(=O)(=O)O)cc1)(Cc1cccc(NS(=O)(=O)O)c1)C(=O)OC`, half-maximal inhibition in assay [1] (IC50) required 0.1 µM. Compared with the last molecule, the IC50 is about 2.1-fold lower.
Regarding `COc1ccc(CC(Cc2ccc(NS(=O)(=O)O)cc2)(c2nc(C)no2)c2nc(C)no2)cc1`, the half-inhibitory concentration (IC50) in assay [1] is 0.34 µM.
In the case of `CCOC(=O)C(Cc1ccc(NS(=O)(=O)O)cc1)(NC(=O)OC(C)(C)C)C(=O)OC` (configuration not stated), inhibition in assay [1] was half-maximal at 0.45 µM (IC50).
Turning to `COC(=O)C(Cc1ccc(NS(=O)(=O)O)cc1)(Cc1ccc(NS(=O)(=O)O)cc1)C(=O)OC`, in assay [1], the midpoint of inhibition, the IC50, lay at 0.06 µM. Compared with the last molecule, the IC50 is about 7.5-fold lower.
On the same count and under the same terms, in the case of `COC(=O)c1cccc(CC(Cc2ccc(NS(=O)(=O)O)cc2)(C(=O)OC)C(=O)OC)c1` it was 0.29 µM.
On to `COc1cccc(CC(Cc2ccc(NS(=O)(=O)O)cc2)(c2nc(C)no2)c2nc(C)no2)c1`, for which, in assay [1], the IC50 was found to be 0.23 µM. This IC50 and that of the molecule before are within 1.5-fold of each other.
Take `CCOC(=O)CC(Cc1ccc(NS(=O)(=O)O)cc1)(C(=O)OC)C(=O)OC`: the half-inhibitory concentration (IC50) in assay [2] was 16.2 µM; in assay [3] it was 4.8 µM; in assay [4], greater than 500 µM; in assay [5], 288 µM; in assay [6] it was greater than 500 µM; in assay [7] it was 200 µM. The concentration for half-maximal inhibition (IC50) in assay [8] was 109 µM; in [9], greater than 500 µM; in [10] it was 126 µM; in assay [1], 0.23 µM.
`COC(=O)C(CCCSc1nnnn1-c1ccccc1)(Cc1ccc(NS(=O)(=O)O)cc1)C(=O)OC`: the concentration for half-maximal inhibition (IC50) in assay [1] came out at 0.2 µM.
For `COC(=O)C(Cc1ccccc1)(Cc1ccc(NS(=O)(=O)O)cc1)C(=O)OC`, the half-inhibitory concentration (IC50) is 6.1 µM in assay [2], 19.4 µM in assay [11] and 0.9 µM in assay [12].
`COC(=O)C(Cc1ccc(NS(=O)(=O)O)cc1)(Cc1ccc(OC)cc1)C(=O)OC` yielded a 50% inhibitory concentration (IC50) in assay [1] of 0.39 µM.
Molecule `COC(=O)C(Cc1ccc(NS(=O)(=O)O)cc1)(Cc1cccc(S(N)(=O)=O)c1)C(=O)OC` gave an IC50 in [1] of 0.3 µM.
In turn, `COC(=O)CCCC(Cc1ccc(NS(=O)(=O)O)cc1)(C(=O)OC)C(=O)OC` had a half-maximal inhibitory concentration (IC50) in [1] of 0.38 µM.
In turn, `COC(=O)C(Cc1ccc(NS(=O)(=O)O)cc1)(Cc1cccc(OC)c1)C(=O)OC` displayed a concentration for half-maximal inhibition (IC50) in assay [1] of 0.33 µM.
In the case of `Cc1noc(C(Cc2ccc(NS(=O)(=O)O)cc2)(Cc2ccc(NS(=O)(=O)O)cc2)c2nc(C)no2)n1`, half-maximal inhibition in [1] (IC50) was put at 0.08 µM.
As to `COC(=O)C(Cc1ccc(NS(=O)(=O)O)cc1)(Cc1ccc(C(=O)O)cc1)C(=O)OC`, the IC50 in assay [1] was 0.14 µM.
Regarding `Cc1noc(C(CCCc2ccccc2)(Cc2ccc(NS(=O)(=O)O)cc2)c2nc(C)no2)n1`, the half-maximal inhibitory concentration (IC50) in assay [1] is 0.07 µM.
Molecule `COC(=O)c1ccc(CC(Cc2ccc(NS(=O)(=O)O)cc2)(C(=O)OC)C(=O)OC)cc1` came in with a 50% inhibitory concentration (IC50) in [1] of 0.41 µM.

As usually defined, the IC50 is the concentration that inhibits the measured activity by half. Low readings indicate higher potency, high ones lower potency.
